# Legend:
# LLC lung cancer = assay: Study-3: iSHP-1 with RT and αPD-L1, LLC lung cancer; format: in vivo, mice; settings: TPI-1 3 or 5 mg/kg i.p. every 3 days, right flank RT 8Gy-4Gy-2Gy, αPD-L1 100 μg
# Method: (§1) FIGS. 13A-13E depict pulse-intermittent SHP-1 inhibition (iSHP-1) combination with RT and αPD-L1 treating pancreatic cancer and lung cancer. FIG. 13A depicts experimental schemes. […] Concomitantly, the tumor at the right flank was treated with 8Gy X-ray radiation (RT). After two days of intermittent period, mice on day 4 were treated with the 2nd cycle TPI-1 (i.p.) of the same dose while RT reduced to 4Gy applied to the right flank tumor. The 3rd cycle (day 7) iSHP-1 combination with RT reduced to 2Gy. Anti-PD-L1 Ab (100 μg, i.p.) was given a day following TPI-1 plus RT. FIG. 13B depicts luminescent image tracing KPC-luc and LLC-luc tumor changes post treatment. FIG. 13C depicts record of tumor volume changes and animal survival up to post-treatment 45 days.
# (§2) Modalities & Dosing Strategy: i) iSHP-1—TPI-1, 3 or 5 mg/kg, i.p., 1× every 3 days. ii) Tumor focal RT: 8Gy-4Gy-2Gy, given to right flank simultaneously with iSHP-1. iii) αPD-L1: 100 μg, i.p., given a day after iSHP-1 plus RT
# [1] = tested on: PTP/SHP-1 activity in KPC tumor; assay: PTP/SHP-1 activity in KPC tumor in vivo; design: species or system murine; settings: with αTLR, cytokines, STING activator, RT, AZA or αPD-L1
# KPC pancreatic cancer = assay: Study-3: iSHP-1 with RT and αPD-L1, KPC pancreatic cancer; format: in vivo, mice; settings: TPI-1 3 or 5 mg/kg i.p. every 3 days, right flank RT 8Gy-4Gy-2Gy, αPD-L1 100 μg
# Method: as §1, §2
# STAT1 and Erk1/2 = assay: Pulse inhibition of SHP-1, STAT1 and Erk1/2 phosphorylation (WB); format: cell-based, murine; settings: IFNγ/LPS, immediately after treatment
# Method: FIGS. 4A and 4B depict that pulse inhibition of SHP-1 transiently enhances proinflammatory signal transduction in macrophages. FIG. 4A: murine macrophages (bone marrow derived macrophages, or “BMDM”) were treated with TPI-1 for 15 min followed by wash to complete removal of TPI-1. At different time points after the TPI-1 treatment, macrophages were stimulated with IFNγ/LPS in the presence of alive cancer cells (1:1 ratio to BMDM) for 20 min prior to cell lysis and assaying SHP-1 activity using pNpp and WB detecting total and phosphorylated STAT1 and Erk1/2. FIG. 4B: the same setting as in FIG. 4A, except that after TPI-1 treatment, TPI-1 in medium was partially removed (50%) or without removal, followed by macrophage stimulation with IFNγ/LPS at different time points.
# SHP-1 = SHP-1 activity in macrophages under proinflammatory stimulation and cancer cell ligation; format: cell-based; settings: IFNγ/LPS stimulation, cancer cell ligation
# Method: (§3) FIGS. 2A-2G depict that the inhibition of SHP-1 enhances macrophage proinflammatory response, antigen presentation and phagocytosis in a tumor milieu. FIG. 2A and FIG. 2B depict that SHP-1 activity in macrophages is triggered by proinflammatory stimulation and the extracellular cancer cell ligation (“touching”) of macrophages (green bar in FIG. 2A). […] The SHP-2 inhibitor SHP099 (1 μg/ml) was used in assays. FIG. 2C depicts the inhibition of SHP-1 by TPI-1 dose-dependently recovers IFNγ/LPS-induced activation of STAT1 (p-STAT1) and Erk1/2 (p-Erk1/2) de-activated by SHP-1 (red line). FIG. 2D and FIG. 2E depict that the inhibition of SHP-1 in macrophages by TPI-1 enhances production of proinflammatory cytokines (FIG. 2D) and expression of immunogenic antigen presentation machinery (FIG. 2E) by IFNγ/LPS in a tumor milieu. […] The SHP-1 and SHP-2 inhibitors TPI-1 and SHP099, respectively, was used at 1 μg/ml in assays.
# FIGS. 3A-3E depict modulation of SHP-1 activity in proinflammatory macrophages in cancer. Macrophages co-cultured with cancer cells were stimulated with IFNγ/LPS or TLR agonists (αTLR) comprising CpG, polycytidylic acid (i.e., PolyI:C) and R848 (each 0.4 μg/ml) for 30 min (37 °C) in the presence or the absence of different SHP-1 or SHP-2 inhibitor or activator, followed by cell lysis and assays of PTP activity. FIG. 3A depicts SHP-1 activity regulation mechanisms. […] FIG. 3E depicts that PKCθ negatively regulates SHP-1 activity at a moderate level.
# In addition to TPI-1, several other SHP-1 inhibitors such as PTP inhibitor-I, PTP inhibitor-III, and recently reported vitamin E (9, 10) and phomoxanthone A and B (P×A and P×B) (11) were tested. Given that PKCθ modulates SHP-1 activity through phosphorylating Ser591 (12, 13), PKCθ inhibitor and activator were also tested in various assays.
# [2] = tested on: THP-1 leukemia cells and HT29 colon cancer cells; assay: Phagocytosis by human monocytes-derived macrophages; format: cell-based; settings: 1 μg/ml
# Method: as §3
# [3] = tested on: MC38 colorectal carcinoma; assay: TME analysis of MC38 colorectal carcinoma in mice; format: in vivo, murine
# Source text: (§4) FIGS. 8A-8E depict that SHP-1 inhibition combined with TLR agonists (αTLR) reprograms TME of MC38 colorectal carcinoma. FIG. 8A depicts MC38 tumor treatment scheme.
# MC38 tumor = assay: Ex vivo treatment of excised MC38 tumor; design: species or system murine; settings: TPI-1 and αTLR
# Source text: as §4
# Consistent with these changes, TME analyses of MC38 colorectal and KPC pancreatic tumors treated with TLR agonist combined with TPI-1 or RT (FIGS. 8A-8E & 9) found rapid infiltration of inflammatory neutrophils (ROShigh) and tumor-killing NK cells (Granzhigh), and the strong antigen presentation also brought about the expansion of tumor-specific (p15E-reactive) cytotoxic T cells harboring high tumoricidal capacity (Granzhigh). The immunosuppressive compartments in the same TME, including MDSC and Treg, were reduced. […] Ex vivo infusion of TLR agonists and TPI-1 together, but not each individually, into excised tumors induced the similar response of T cell expansion.
smiles,measurement,setting,value
O=C1C=CC(=O)C(c2cc(Cl)ccc2Cl)=C1 [TPI-1],tumor elimination incl. distal lesions,LLC lung cancer,effectively eliminating or repressing KPC pancreatic cancer and LLC lung cancer along with distal lesions
same,treatment-induced PTP/SHP-1 activity abated,[1],abated
same,tumor elimination incl. distal lesions,KPC pancreatic cancer,effectively eliminating or repressing KPC pancreatic cancer and LLC lung cancer along with distal lesions
same,pSTAT-1 and pErk1/2,STAT1 and Erk1/2,increased pSTAT-1 and pErk1/2
same,SHP-1 activity in macrophages (effect in words),SHP-1,potently inhibited SHP-1 activity at low concentrations
same,phagocytosis of cancer cells,[2],promotes proinflammatory-activated macrophages for phagocytosis of cancer cells
same,intratumoral macrophages,[3]; TPI-1 and αTLR,marked reduction of intratumoral macrophages
same,TME reprogramming,[3]; TPI-1 combined with αTLR,"reduction of tumor cells, and increases in immune infiltration especially tumoricidal CD8 T cells, neutrophils (PMN) and NK cells, while reduction of macrophages, MDSC and Treg"
same,CD8 T cell expansion in excised tumor,MC38 tumor,induced CD8 T cell expansion

# From patent US20260325465A1, “SHP-1 INHIBITORS FOR TREATING CANCER” (MDX MANAGEMENT LLC, priority 2022, published 2026)
